Data taken from patent US9457007B2, “Prenylflavanone compounds for modulating diabetes” (NATUREWISE BIOTECH & MEDICALS CORPORATION, priority 2013, dated 2016).
Entries after “also recorded” stand apart in the source; their conditions may differ.

Experiments:
Format in all cases: in vivo
[1] = system: STZ-induced diabetic mice; experiment: Oral glucose tolerance test (OGTT); design: reduction of AUC compared with the STZ group / extent of reduction of AUC compared with the STZ group: concentration or dose not given beside the values; details: propolins study; for AUC value for blood glucose (integral area) / extent of reduction of AUC compared with the STZ group: OGTT
Procedure: (§1) The male FBV mice of 5 weeks old, commercially available from BioLASCO Co., Ilan, Taiwan, were acclimatized for 1 week, prior to administration of streptozotocin (STZ) at 40 mg/kg for 3 consecutive days. STZ was formulated with an aqueous solution of sodium citrate (pH 4.5, 73.5 mg/5 mL) on ice, and then 100 μL of the formulation was dosed by intraperitoneal injection. From day 2 in the 3 consecutive days, the mice were dosed with 5% (w/v) glucose water for 6 consecutive days. After allowing the mice to rest for 10 days, blood glucose levels were measured. After administration of STZ for 1 week, about 5 μL of blood was collected from each of the mice at the tail vein, and was assayed for blood glucose by a blood glucose monitor and chip (FORA, California, U.S.A.). After 1 week, blood glucose was detected once more, and whether blood glucose was smooth or not was evaluated prior to grouping. The values of blood glucose in all of the mice induced to suffer from diabetes were brought to fall within about 300±50 mg/dL.
After administration of the testing substance to the animals for 12 weeks, the OGTT test was performed for evaluation of secretion and effects of insulin. All of the mice in the test were administered with the testing substance and then fasted for 4 hours prior to blood sampling at the first point called point 0. Afterwards, the mice were fed by oral gavage with 200 μL glucose in water, equivalent to a dose of 1.0 g/kg. After administration, blood was collected for an assay of blood glucose at 15, 30, 60, 120 and 180 minutes, respectively. Therefore, a total of 6 points, including points at 0, 15, 30, 60, 120 and 180 minutes, were obtained. About 5 μL of blood was collected from each of the mice at the tail vein and was then assayed for blood glucose by the blood glucose monitor and chip (FORA, California, U.S.A.). The blood glucose values at the Y-axis were plotted against the time points at the X-axis. Each group was calculated for an area under curve for comparison. The efficacy in regulation of blood glucose was evaluated by the area showing a relationship between the testing substance and secretion and effects of insulin.

[2] = system: STZ-induced diabetic mice; experiment: Feedstuff intake of the diabetic mice; details: propolins study
Procedure: as §1
(§2) An appropriate amount of the Taiwan Green Propolis alcohol extract was dissolved with 3 ml 95% alcohol and then uniformly mixed with 80 μL Tween 80 as a cosolvent; after concentrating under reduced pressure for removal of alcohol, it was dispersed into 16 ml water to give a liquid mixture of the Taiwan Green Propolis extract. This mixture was fed by 200 μL gavage into the diabetic mice designated as the Taiwan Green Propolis extract group.
(§3) An appropriate amount of propolins and its relevant derivatives, such as PPA, PPB, PPC, PPD, PPE, PPF, PPG, PPH, PPI or PPJ, was dissolved with 3 ml 95% alcohol and then uniformly mixed with 80 μL Tween 80; after concentrating under reduced pressure for removal of alcohol, it was uniformly dispersed into 16 ml water to give a liquid mixture of propolins. This mixture was fed by 200 μL gavage into the diabetic mice designated as the propolins and its relevant derivative group.
(§4) Sitagliptin (trade name: Januvia), commercially available from American Merck Co., was used as the DPP4 inhibitor. An appropriate amount of sitagliptin was dissolved in water to provide a final concentration allowing administration of the mice at a dose of 370 mg/kg. In the following example, Januvia was representative of the DPP4 inhibitors and acted as a positive control group for reference.
(§5) Tween 80 (80 μL) was mixed into 16 ml water to give a placebo, which was fed by 200 μL gavage into the STZ-induced diabetic mice or normal mice (i.e., the mice without induction for diabetes). Oral gavage was carried out once at a fixed time each day, and weight, feedstuff intake and water intake were measured weekly until tests were finished at 12-13 weeks.

[3] = system: STZ-induced diabetic mice; experiment: Blood glucose in the STZ-induced diabetic mice; details: propolins study; for modulation of blood glucose: 8 weeks, dose 1.2-2.4% of the Januvia dose
Procedure: as §1, with “mg/dL. […]” for “mg/dL.”
as §3, §4, §5

[4] = system: STZ-induced diabetic mice; experiment: Water intake of the diabetic mice; details: propolins study
Procedure: as §1, §2, §3, §4, §5

[5] = 0 point, PPC 9.0, PPD 6.75, PPF 4.5, PPG 4.5, DPP4I 370 mg/kg/mouse
[6] = 30-minute time point after glucose in water
[7] = after administration for 8 weeks by gavage daily, PPC 9.0, PPD 6.75, PPF 4.5, PPG 4.5, Januvia 370 mg/kg/mouse

SMILES	value of blood glucose in glucose tolerance test [1, 5]	value of blood glucose in glucose tolerance test [1, 6]	value of blood glucose in glucose tolerance test ([1]; 120-minute time point)	value of blood glucose in glucose tolerance test ([1]; 180-minute time point) [mg/dL]	AUC value for blood glucose (integral area) [1]	extent of reduction of AUC compared with the STZ group [1] [%]	effect on feedstuff intake [2]	feedstuff intake ([2]; at 1 week) [g/mouse]	feedstuff intake ([2]; at 6 weeks) [g/mouse]	feedstuff intake ([2]; at 8 weeks) [g/mouse]	modulation of blood glucose [3]	blood glucose [3, 7] [mg/dL]	blood glucose ([3]; at 0 week) [mg/dL]	effect on water intake [4]	water intake ([4]; at 1 week) [mL/mouse]	water intake ([4]; at 6 weeks) [mL/mouse]	water intake ([4]; at 8 weeks) [mL/mouse]	efficacy in glucose tolerance test ([1]; compared to the STZ group)
CC(C)=CCC/C(C)=C/Cc1c(O)cc2c(c1O)C(=O)C[C@@H](c1ccc(O)c(O)c1)O2 [PPC, (S,E)-2-(3,4-dihydroxyphenyl)-6-(3,7-dimethylocta-2,6-dien-1-yl)-5,7-dihydroxy-3,4-dihydro-2H-1-benzopyran-4-one]	about 350 mg/dL	about 450 mg/dL	about 430 mg/dL	400	about 8.0×10^4	28.2	significantly inhibited feedstuff intake	7.2	8.0	7.9	highly effectively modulated	298	330	significantly inhibited water intake	8.2	16.0	24.0	–
CC(C)=CCC/C(C)=C/Cc1c([C@@H]2CC(=O)c3c(O)cc(O)cc3O2)ccc(O)c1O [PPD, (S,E)-2-(2-(3,7-dimethylocta-2,6-dien-1-yl)-3,4-dihydroxyphenyl)-5,7-dihydroxy-3,4-dihydro-2H-1-benzopyran-4-one]	about 380 mg/dL	about 530 mg/dL	about 490 mg/dL	460	about 8.7×10^4	16.2	significantly inhibited feedstuff intake	7.2	7.2	7.2	highly effectively modulated	400	330	significantly inhibited water intake	8.0	14.0	16.0	–
CC(C)=CCC/C(C)=C/Cc1cc([C@@H]2CC(=O)c3c(O)cc(O)cc3O2)cc(O)c1O [PPF, (S,E)-2-(3-(3,7-dimethylocta-2,6-dien-1-yl)-4,5-dihydroxyphenyl)-5,7-dihydroxy-3,4-dihydro-2H-1-benzopyran-4-one]	about 390 mg/dL	about 525 mg/dL	about 420 mg/dL	430	about 8.2×10^4	15.0	significantly inhibited feedstuff intake	6.3	7.0	6.3	effectively highly modulated	398	330	–	8.0	13.0	10.0	–
CC(C)=CCC/C(C)=C/Cc1c([C@@H]2CC(=O)c3c(cc(O)c(CC=C(C)C)c3O)O2)ccc(O)c1O [PPG, (S,E)-2-(2-(3,7-dimethylocta-2,6-dien-1-yl)-3,4-dihydroxyphenyl)-5,7-dihydroxy-6-(3-methylbut-2-en-1-yl)-3,4-dihydro-2H-1-benzopyran-4-one]	about 385 mg/dL	about 525 mg/dL	about 380 mg/dL	350	about 7.8×10^4	31.7	significantly inhibited feedstuff intake	4.8	7.0	7.2	higher activity for modulation of blood glucose than DPP4I; also recorded: the most effective compound for modulating blood glucose	298	330	–	6.5	9.0	9.0	more excellent efficacy
